From patent publication US11814364B2, “Pyridine N-oxide derivatives useful as factor XIa inhibitors” (Janssen Pharmaceutica NV, priority 2021, dated 2023) come the findings set out here.

Structures are written as SMILES.

This assay deals with human plasma kallikrein (Homo sapiens, UniProt P03952). The experiment in a line: Kallikrein inhibition FLINT assay with quenched AMC peptide substrate Z-Gly-Pro-Arg-AMC (end point EP or kinetic KIN reads). Type of assay: biochemical. Conditions: kinetic reads at 5 min intervals over 30 min; read-out: Kallikrein (KIN) IC50. Here is the method: A fluorescence intensity (FLINT) based assay was used to monitor inhibition of human plasma kallikrein.
Chain of human plasma kallikrein (P03952 391-638 limits assumed): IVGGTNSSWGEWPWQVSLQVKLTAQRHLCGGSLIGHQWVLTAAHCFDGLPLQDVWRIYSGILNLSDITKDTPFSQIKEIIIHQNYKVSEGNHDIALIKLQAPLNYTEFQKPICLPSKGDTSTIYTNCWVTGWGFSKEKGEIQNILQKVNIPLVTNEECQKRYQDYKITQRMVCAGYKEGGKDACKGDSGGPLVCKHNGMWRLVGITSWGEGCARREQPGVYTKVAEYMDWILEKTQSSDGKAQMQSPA
Chain of human plasma kallikrein (P03952 20-390 partner limits assumed): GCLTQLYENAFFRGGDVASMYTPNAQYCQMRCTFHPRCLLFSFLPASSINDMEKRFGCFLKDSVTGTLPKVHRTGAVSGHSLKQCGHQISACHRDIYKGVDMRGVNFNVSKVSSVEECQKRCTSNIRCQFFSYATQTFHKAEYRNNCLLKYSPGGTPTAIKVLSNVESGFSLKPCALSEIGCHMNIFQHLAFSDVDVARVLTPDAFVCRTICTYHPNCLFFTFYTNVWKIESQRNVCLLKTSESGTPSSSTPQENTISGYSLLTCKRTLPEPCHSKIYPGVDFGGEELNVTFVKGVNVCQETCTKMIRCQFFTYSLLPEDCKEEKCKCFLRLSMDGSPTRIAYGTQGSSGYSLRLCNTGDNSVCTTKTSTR
The Kallikrein FLINT assay was used with the following Z-Gly-Pro-Arg-AMC assay buffer: 50 mM Tris, pH 7.5, 100 mM NaCl, 5 mM CaCl2, 0.1 mg/mL BSA, 0.03% CHAPS. Assay buffer was prepared by mixing all ingredients fresh. 2× Z-Gly-Pro-Arg-AMC peptide substrate was prepared by diluting 10 mM stock into 1× assay buffer for a 100 μM working concentration (50 μM final concentration).
Test compound(s) were run in an 11-point, 3-fold serial dilution with a final top compound concentration of 1 μM. Final DMSO in assay was 2%. Plasma kallikrein was pre-incubated for 30-minute with compound and then 50 μM substrate was added to initiate the reaction. The assay was run with either end point (EP) reads at 30 min or kinetic (KIN) reads at 5 min intervals over 30 minutes.
Percent inhibition (IC50) curves were generated per compound tested, and data was analyzed using a 4-parameter logistic fit using GeneData Screener. The relative fluorescence unit (RFU) values were normalized to percent inhibition using the following equation: % inhibition=((HC−LC)−(compound−LC)/(HC−LC))*100
An 11-point dose response curve for the test compound(s) was generated using GENDATA to determine IC50 value based on the following equation: Y=Bottom+(Top−Bottom)/(1+10^((log IC50−X)*HillSlope))
Results listed in columns with […] designation were measured using endpoint reads where a single fluorescence reading was measured for each well at a 30 min timepoint.
Broadly, the IC50 is the concentration that gives 50% inhibition. Regarding `[O-][n+]1cc(-c2c(-n3cc(Cl)nn3)ccc(Cl)c2F)ccc1[C@@H](CCOC(F)F)n1cc(-c2ncnn2C(F)F)cn1` [Example P683], the IC50 was found to be 29.5 nM.

Regarding `N#Cc1cc(-c2cnn(C(Cn3cc(F)cn3)c3ccc(-c4c(-n5cnnn5)ccc(Cl)c4F)c[n+]3[O-])c2)ccn1` (single isomer, unassigned) [Example P453], the IC50 turned out to be 132 nM. `COc1cc(C(CC2CC2)n2cc(-c3ncnn3C(F)F)cn2)[n+]([O-])cc1-c1cc(Cl)ccc1-n1cnnn1` (single isomer, unassigned) [Example P917]: the IC50 came to 3.9 nM. Next, `[O-][n+]1cc(-c2c(-n3cnnn3)ccc(Cl)c2F)ccc1C(Cn1cccn1)n1cc(-c2ccnc(C(F)(F)F)c2)cn1` (single isomer, unassigned) [Example P514]: 72.9 nM; `Cn1nnc(F)c1-c1cnn([C@H](CCOC(F)F)c2ccc(-c3c(-n4cnnn4)ccc(Cl)c3F)c[n+]2[O-])c1` [Example P724]: 8.5 nM; `[O-][n+]1cc(-c2c(-n3cnnn3)ccc(Cl)c2F)ccc1[C@@H](Cc1cnn(C(F)F)n1)n1cc(-c2ccnc(C(F)(F)F)c2)cn1` [Example P742]: 19.1 nM. As to `[O-][n+]1cc(-c2c(-n3cnnn3)ccc(Cl)c2F)ccc1C(CC1CC1)n1cc(-c2ccnc(F)c2)cn1` (single isomer, unassigned) [Example P264], the IC50 was 46.3 nM. Next, `O=C(O)c1ccc(-c2cnn(C(c3ccc(-c4cc(Cl)ccc4-n4cnnn4)c[n+]3[O-])C(O)c3ccccc3)c2)cc1` (single isomer, unassigned) [Example P119]: 155 nM.

As to `COC(=O)Nc1ccc(-c2cnn(C(Cn3cccn3)c3ccc(-c4c(-n5cnnn5)ccc(Cl)c4F)c[n+]3[O-])c2)cc1` (stereo not shown) [Example P214], the IC50 was 6.3 nM.

`COC(=O)CC(c1ccc(-c2c(-n3cc(C(F)(F)F)nn3)ccc(Cl)c2F)c[n+]1[O-])n1cc(-c2ccc(C(=O)O)c(F)c2)cn1` (stereo not shown) [Example P890]: the IC50 is 105 nM. Next, `CC1CC1CC(c1ccc(-c2c(-n3cnnn3)ccc(Cl)c2F)c[n+]1[O-])n1cc(-c2ncnn2C(F)F)cn1` (stereo not shown) [Example P764]: more than 100 nM. In the case of `[O-][n+]1cc(-c2cc(Cl)ccc2-n2cnnn2)ccc1C(Cn1cc(C(F)(F)F)cn1)n1cc(-c2ccnc(F)c2)cn1` (stereo not shown) [Example P321] it was 94.9 nM; in that of `Cn1ncc(O)c1-c1cnn(C(CCOC(F)F)c2ccc(-c3c(-n4cc(Cl)nn4)ccc(Cl)c3F)c[n+]2[O-])c1` (stereo not shown) [Example P747], 26.2 nM. `CN(CC(c1ccc(-c2c(-n3cnnn3)ccc(Cl)c2F)c[n+]1[O-])n1cc(-c2ccncc2)cn1)OC(F)(F)F` (stereo not shown) [Example P323]: the IC50 worked out at 23 nM.

On to `[O-][n+]1cc(-c2c(-n3cnnn3)ccc(Cl)c2F)ccc1C(Cn1cc(F)cn1)n1cc(-c2ccnc(F)c2)cn1` (stereo not shown) [Example P352], for which the IC50 worked out at 13.4 nM.

Regarding `COc1cc(C(CC2CC2)n2cc(-c3ncnn3C)cn2)[n+]([O-])cc1-c1cc(Cl)ccc1-n1cc(C(F)(F)F)nn1` (single isomer, unassigned) [Example P918], the IC50 was 29.5 nM.

Take `[O-][n+]1cc(-c2cc(Cl)ccc2-n2cnnn2)ccc1C(Cn1cc2c(n1)COCC2)n1cc(-c2ccnc(C(F)(F)F)c2)cn1` (stereo not shown) [Example P388]: the IC50 is 126 nM. Next, `O=C(O)c1cccc(-c2cnn(C(CC3CC3)c3ccc(-c4cc(Cl)ccc4-n4cnnn4)c[n+]3[O-])c2)c1` (stereo not shown) [Example P13]: 536 nM; `[O-][n+]1cc(-c2c(-n3cnnn3)ccc(Cl)c2F)ccc1C(CC1CC1)n1cc(-c2cnnn2C2CC2)cn1` (stereo not shown) [Example P524]: 428 nM; `CN(CC(c1ccc(-c2c(-n3cnnn3)ccc(Cl)c2F)c[n+]1[O-])n1cc(-c2ccnc(C(F)(F)F)c2)cn1)C(=O)c1ccn(C)c(=O)c1` (single isomer, unassigned) [Example P434]: 427 nM.

On to `CC1CC1C[C@@H](c1ccc(-c2c(-n3cnnn3)ccc(Cl)c2F)c[n+]1[O-])n1cc(-c2c(F)nnn2C)cn1` (stereo partly shown) [Example P769], for which the IC50 is more than 100 nM. Regarding `CCC(c1cc(OC)c(-c2cc(Cl)ccc2-n2cc(C(F)(F)F)nn2)c[n+]1[O-])n1cc(-c2ncnn2C)cn1` (single isomer, unassigned) [Example P922], the IC50 was 54.9 nM. Take `Cc1nc(C(F)(F)F)sc1-c1cnn(C(CC2CC2)c2ccc(-c3c(-n4cnnn4)ccc(Cl)c3F)c[n+]2[O-])c1` (single isomer, unassigned) [Example P961]: the IC50 stood at 85.6 nM.

Turning to `[O-][n+]1cc(-c2c(-n3cnnn3)ccc(Cl)c2F)ccc1C(Cc1ccc(F)cc1)n1cc(-c2c(Cl)nnn2C(F)F)cn1` (single isomer, unassigned) [Example P589], the IC50 was determined as 520 nM.

On to `[O-][n+]1cc(-c2c(-n3cnnn3)ccc(Cl)c2F)ccc1C(CC1CC1)n1cc(-c2ccnnc2)cn1` (stereo not shown) [Example P397], for which the IC50 came out at 397 nM.

`O=C(O)c1ccc(-c2cnn(C(CN3CCCC3=O)c3ccc(-c4c(C(F)F)ccc(Cl)c4F)c[n+]3[O-])c2)cc1` (single isomer, unassigned) [Example Q14]: the IC50 was determined as 3.9 nM. `O=C(NC1CC1)c1ccc(-c2cnn(C(CC3CCCCO3)c3ccc(-c4c(-n5cnnn5)ccc(Cl)c4F)c[n+]3[O-])c2)cc1` (single isomer, unassigned) [Example P77]: the concentration for half-maximal inhibition (IC50) is 36.2 nM. In the case of `CC(=O)Nc1cnc(C(F)(F)F)cc1-c1cnn(C(CC2CC2)c2ccc(-c3c(-n4cnnn4)ccc(Cl)c3F)c[n+]2[O-])c1` (single isomer, unassigned) [Example P842] it was 346 nM; in that of `NC(=O)c1ccc(-c2cnn([C@H](CCOC(F)F)c3ccc(-c4c(-n5cc(C(F)(F)F)nn5)ccc(Cl)c4F)c[n+]3[O-])c2)cc1F` [Example P860], 10.2 nM. Turning to `[O-][n+]1cc(-c2c(-n3cnnn3)ccc(Cl)c2F)ccc1C(Cn1cc(F)cn1)n1cc(-c2ccnc(C(F)(F)F)c2)cn1` (stereo not shown) [Example P275], the IC50 was 19.1 nM.

As for `Cc1cc(C(CC2CC2)n2cc(-c3cnn(C)c(=O)c3)cn2)[n+]([O-])cc1-c1c(-n2cnnn2)ccc(Cl)c1F` (stereo not shown) [Example P130], the IC50 stood at 959 nM. Take `COCc1ccnn1CC(c1ccc(-c2c(-n3cnnn3)ccc(Cl)c2F)c[n+]1[O-])n1cc(-c2ccnc(C(F)(F)F)c2)cn1` (stereo not shown) [Example P464]: the IC50 amounted to 185 nM.

Consider `[O-][n+]1cc(-c2c(-n3cnnn3)ccc(Cl)c2F)ccc1C(Cn1nccc1C(F)(F)F)n1cc(-c2ccnc(F)c2)cn1` (stereo not shown) [Example P346], for which the IC50 is 11.8 nM. As to `CCC(c1ccc(-c2c(-n3cnnn3)ccc(Cl)c2F)c[n+]1[O-])n1cc(-c2cc[n+]([O-])cc2)cn1` (single isomer, unassigned) [Example P234], the half-inhibitory concentration (IC50) was found to be 298 nM. With `NC(=O)c1ccc(-c2cnn(C(CC(=O)N3CCCC3)c3ccc(-c4c(-n5cc(C(F)(F)F)nn5)ccc(Cl)c4F)c[n+]3[O-])c2)cc1F` (stereo not shown) [Example P902], the concentration for half-maximal inhibition (IC50) worked out at 87.1 nM. For the compound `COc1cc(C(Cc2ccn(C(F)F)n2)n2cc(-c3ccc(C(N)=O)c(F)c3)cn2)[n+]([O-])cc1-c1cc(Cl)ccc1C(C)=O` (single isomer, unassigned) [Example Q78], the 50% inhibitory concentration (IC50) was 510 nM. In the case of `[O-][n+]1ccc(-c2cnn(C(Cn3cc(F)cn3)c3ccc(-c4c(-n5cnnn5)ccc(Cl)c4F)c[n+]3[O-])c2)cc1` (stereo not shown) [Example P360] it was 36.6 nM. Next, `NC(=O)C1CC1CC(c1ccc(-c2cc(Cl)ccc2-n2cnnn2)c[n+]1[O-])n1cc(-c2ccc(C(=O)O)cc2)cn1` (stereo not shown) [Example P113]: 291 nM. For the compound `CC(C)(C)c1cnn(CC(c2ccc(-c3c(-n4cc(C(F)(F)F)nn4)ccc(Cl)c3F)c[n+]2[O-])n2cc(-c3ccc(C(N)=O)c(F)c3)cn2)c1` (stereo not shown) [Example P951], the IC50 was 316 nM.

As for `CC1CC1C[C@H](c1ccc(-c2c(-n3cnnn3)ccc(Cl)c2F)c[n+]1[O-])n1cc(-c2c(F)nnn2C)cn1` (stereo partly shown) [Example P768], the half-inhibitory concentration (IC50) turned out to be 70.5 nM.

With `COC(=O)N(C)CC(c1ccc(-c2c(-n3cnnn3)ccc(Cl)c2F)c[n+]1[O-])n1cc(-c2ccncc2)cn1` (stereo not shown) [Example P303], the half-maximal inhibitory concentration (IC50) was 32.7 nM.

Turning to `[O-][n+]1cc(-c2c(-n3cnnn3)ccc(Cl)c2F)ccc1C(CC1CC1)n1cc(-c2ccncc2)cn1` (stereo not shown) [Example P187], the IC50 turned out to be 124 nM. Next, `CN(CC(c1ccc(-c2c(-n3cnnn3)ccc(Cl)c2F)c[n+]1[O-])n1cc(-c2ccnc(C(F)(F)F)c2)cn1)C(=O)c1ccn(C)c(=O)c1` (single isomer, unassigned) [Example P435]: 9.7 nM. Next, `COC(=O)Nc1ccc(-c2cnn(C(CC3CCC3)c3ccc(-c4c(-n5cnnn5)ccc(Cl)c4F)c[n+]3[O-])c2)cc1` (stereo not shown) [Example P109]: 45.7 nM; `[2H]C([2H])([2H])n1nccc1-c1cnn([C@H](CCOC(F)F)c2ccc(-c3c(-n4cnnn4)ccc(Cl)c3F)c[n+]2[O-])c1` [Example P556]: 2.4 nM. Turning to `NC(=O)c1ccc(-c2cnn(C(Cc3nccs3)c3ccc(-c4c(-n5cc(C(F)(F)F)nn5)ccc(Cl)c4F)c[n+]3[O-])c2)cc1F` (single isomer, unassigned) [Example P942], the IC50 was determined as 249 nM.
